Data reported in PMC10364322, “Evaluation of chronic drug-induced electrophysiological and cytotoxic effects using human-induced pluripotent stem cell-derived cardiomyocytes (hiPSC-CMs)” (Frontiers in Pharmacology, 2023).
Read-outs that look alike come from different tables or passages of the source.

System: hiPSC-CMs (iCell-Cardiomyocytes^2)
Outline: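 Spontaneous field potentials and impedance recorded by MEA at 37°C, 5% CO2 in hiPSC-CM monolayers (50 K/well, fibronectin-coated), 5-min baseline before compound; final DMSO 0.1%. Values are percent change from baseline, mean ± SD, compared with DMSO by Wilcoxon-Mann Whitney, interpreted against DMSO tolerance intervals.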

## C[C@H](CS)C(=O)N1CCC[C@H]1C(=O)O [Captopril]
1 µM, 2h
  BR (beating rate), % change from baseline: 4±4%
  FPD (field-potential duration), % change from baseline: 0±2.5%
  FPDc (field-potential duration corrected by beat-rate), % change from baseline: 0.8±1.8%
1 µM, 24h
  BR (beating rate), % change from baseline: 1±5%
  FPD (field-potential duration), % change from baseline: 5±5.9%
  FPDc (field-potential duration corrected by beat-rate), % change from baseline: 5.1±4.4%
1 µM, 48h
  BR (beating rate), % change from baseline: -7±4%
  FPD (field-potential duration), % change from baseline: 11.5±3.8%
  FPDc (field-potential duration corrected by beat-rate), % change from baseline: 8.8±2.5%
1 µM, 72h
  BR (beating rate), % change from baseline: -10±1%
  FPD (field-potential duration), % change from baseline: 16±2.7%
  FPDc (field-potential duration corrected by beat-rate), % change from baseline: 11.9±2.1%
1 µM, 96h
  BR (beating rate), % change from baseline: -15±4%
  FPD (field-potential duration), % change from baseline: 22±4.6%
  FPDc (field-potential duration corrected by beat-rate), % change from baseline: 15.1±3%
3 µM, 72h
  BR (beating rate), % change from baseline: -9±1%
  FPD (field-potential duration), % change from baseline: 12±0.8%
  FPDc (field-potential duration corrected by beat-rate), % change from baseline: 8.6±0.6%
3 µM, 96h
  BR (beating rate), % change from baseline: -18±2%
  FPD (field-potential duration), % change from baseline: 20.9±1.6%
  FPDc (field-potential duration corrected by beat-rate), % change from baseline: 13.5±1.6%
3 µM, 2h
  BR (beating rate), % change from baseline: 2±2%
  FPD (field-potential duration), % change from baseline: 0.3±1.9%
  FPDc (field-potential duration corrected by beat-rate), % change from baseline: 1.1±1.6%
3 µM, 24h
  BR (beating rate), % change from baseline: 1±3%
  FPD (field-potential duration), % change from baseline: 4.3±0.8%
  FPDc (field-potential duration corrected by beat-rate), % change from baseline: 4.6±1.6%
3 µM, 48h
  BR (beating rate), % change from baseline: -7±2%
  FPD (field-potential duration), % change from baseline: 10.9±2.8%
  FPDc (field-potential duration corrected by beat-rate), % change from baseline: 8.2±1.8%
10 µM, 2h
  BR (beating rate), % change from baseline: 2±2%
  FPD (field-potential duration), % change from baseline: 0.3±1.7%
  FPDc (field-potential duration corrected by beat-rate), % change from baseline: 1±1.6%
10 µM, 24h
  BR (beating rate), % change from baseline: 1±3%
  FPD (field-potential duration), % change from baseline: 5.3±3.7%
  FPDc (field-potential duration corrected by beat-rate), % change from baseline: 5.7±2.8%
10 µM, 48h
  BR (beating rate), % change from baseline: -7±3%
  FPD (field-potential duration), % change from baseline: 13.1±5.3%
  FPDc (field-potential duration corrected by beat-rate), % change from baseline: 10.3±4.5%
10 µM, 72h
  BR (beating rate), % change from baseline: -10±1%
  FPD (field-potential duration), % change from baseline: 14.8±5.3%
  FPDc (field-potential duration corrected by beat-rate), % change from baseline: 11.2±4.9%
10 µM, 96h
  BR (beating rate), % change from baseline: -17±1%
  FPD (field-potential duration), % change from baseline: 23.4±6.5%
  FPDc (field-potential duration corrected by beat-rate), % change from baseline: 16±5.7%
30 µM, 2h
  BR (beating rate), % change from baseline: 2±3%
  FPD (field-potential duration), % change from baseline: 3.4±1.3%
  FPDc (field-potential duration corrected by beat-rate), % change from baseline: 4±1.3%
30 µM, 24h
  BR (beating rate), % change from baseline: 1±3%
  FPD (field-potential duration), % change from baseline: 7.4±4.1%
  FPDc (field-potential duration corrected by beat-rate), % change from baseline: 7.7±2.9%
30 µM, 48h
  BR (beating rate), % change from baseline: -7±1%
  FPD (field-potential duration), % change from baseline: 13.9±3.1%
  FPDc (field-potential duration corrected by beat-rate), % change from baseline: 11.4±2.7%
30 µM, 72h
  BR (beating rate), % change from baseline: -9±2%
  FPD (field-potential duration), % change from baseline: 15.6±2%
  FPDc (field-potential duration corrected by beat-rate), % change from baseline: 12.1±2.1%
30 µM, 96h
  BR (beating rate), % change from baseline: -16±2%
  FPD (field-potential duration), % change from baseline: 23.3±2.4%
  FPDc (field-potential duration corrected by beat-rate), % change from baseline: 16±2.1%
All concentrations tested, up to 96 h
  cessation of beating, flat T-wave or arrhythmic-like events: no cessation of beating, flat T-wave or arrhythmic-like events were detected
